Here are results for six molecules from PMC11339798, “Dual inhibitors of Pseudomonas aeruginosa virulence factors LecA and LasB” (Chemical Science, 2024).

The structures appear in SMILES notation. Read-outs that look alike come from different tables or passages of the source. Where only a bound is given, the exact number is not on record here.

One experiment relates to A549 cells. As to the kind of experiment: Inhibition of LasB-dependent cytotoxicity of P. aeruginosa PAO1 culture supernatant on A549 cells (MTT). The note with it: 1 μM compound, 10% (v/v) PAO1 supernatant. Type of experiment: cell-based, human. The procedure: Next, we set out to analyze the ability of the dual inhibitor 12 and the individual treatment or combination of galactoside 1 and thiol 2 to reduce LasB-dependent cytotoxicity from P. aeruginosa PAO1 culture supernatant on A549 cells. None of the investigated compounds influenced A549 cell viability at 100 μM in the absence of bacterial culture supernatant (Fig. S4 ^†). […]
In vitro evaluation of 12 and a combination of 1 and 2 using P. aeruginosa culture supernatant and A549 cells in a cell viability assay
The A549 cell line, derived from human lung adenocarcinoma, was grown in Dulbecco's Modified Eagle Medium (DMEM) supplemented with 10% Fetal Bovine Serum (FBS) and 1% penicillin-streptomycin. The cells were cultured following standard protocols for cell […]
To prepare the bacterial culture supernatant, individual flasks containing 15 mL of lysogeny broth (LB) culture medium were inoculated with PAO1 or PAO1 ΔlasB strains. Culture flasks were placed on a shaker and incubated at 37 °C and 180 rpm overnight for 18 hours. Following incubation, the bacterial cultures were subjected to centrifugation at 4 °C and 5000 rpm for […]
10 min, facilitating the separation of bacterial cells from the supernatant. The latter was filtered through a 0.22 µm sterile filter and stored at –80 °C until further use.
In a flat bottom 96-well plate (Corning™ Costar™), each well was seeded with 2.5–3.5*10 3 cells in 100 µL DMEM/FCS and then incubated at a temperature of 37 °C with 5% CO2 for 24 hours. Then, compounds 12 and 1 combined with 2 in concentrations of 100 µM, 10 µM, and 1 µM were mixed with 10% (v/v) of culture supernatant of P. aeruginosa PAO1 (DSM 22644, ATCC 15692) in DMEM/FCS. To minimize the potential negative effect of DMSO, the compound was initially dissolved in 99.9% DMSO, and a final assay concentration of 0.5% DMSO was applied. Additionally, the cells were exposed to 10% (v/v) PAO1 ΔlasB culture supernatant to analyze the effect caused by LasB, while DMEM/FCS without any treatment served as a control. The plates were then incubated at 37 °C with 5% CO2 for 24 hours before conducting the MTT assay.
To assess cell viability, the medium in the well plates was aspirated and a single wash was performed using 100 µL of phosphate buffered saline, pH 7.4 (PBS). A solution of 5 mg MTT (3-(4,5-dimethylthiazol-2-yl)-2,5-diphenyl tetrazolium bromide) per mL PBS was prepared and diluted to a concentration of 10% (v/v) in DMEM/FCS. Subsequently, 100 µL of this MTT solution was added to each well, and the plates were incubated at 37 °C for 3 hours with 5%
CO2. After incubation, the MTT solution was carefully removed, and the formazan crystals were dissolved by adding 150 µL of lysis solution (250 mL DMSO, 25 g SDS, and 1.25 mL AcOH) to each well. The plates were then incubated for an additional 30 min at 37 °C and then, the UV absorbance was measured using a PHERAstar microplate reader. The test samples were read at a wavelength of 550 nm, while the blank was read at 620 nm. At last, the data were statistically analyzed and presented graphically using GraphPad Prism 9 (Figure S4 and S5).
Evaluation of compounds 1, 2 and 12 in inhibiting LecA adhesion to A549 cells via […]
The A549 cell line were cultured following the protocols for cell maintenance described above.
In a flat-bottom cell culture black 96-well plate (Greiner Bio-One, #Cat 655090) each well was seeded with 1*104 cells in 100 µL DMEM/FCS and subsequently, incubated overnight at 37 °C with 5% CO2. […]

Experiment [1] concerns LecA-FITC binding to human A549 cells. In words: Inhibition of LecA-FITC adhesion to A549 cells by fluorescence microscopy. Type of experiment: cell-based. The settings on record: concentrations tested 1-100 µM, 10 μM LecA-FITC, 4 °C, 30 min. The procedure: LecA-mediated cell adhesion is crucial for the initial infection and host-cell invasion of P. aeruginosa. Therefore, compounds 1 and 2, a combination of 1+2 and the dual inhibitor 12 were assessed for their ability to inhibit LecA-binding to human A549 cells. 10 μM of LecA-FITC and different concentrations of the respective compounds were incubated at 4 °C for 30 min with confluent A549 cells.
10 min, facilitating the separation of bacterial cells from the supernatant. The latter was filtered through a 0.22 µm sterile filter and stored at –80 °C until further use. […]
CO2. […] The plates were then incubated for an additional 30 min at 37 °C and then, the UV absorbance was measured using a PHERAstar microplate reader. The test samples were read at a wavelength of 550 nm, while the blank was read at 620 nm. At last, the data were statistically analyzed and presented graphically using GraphPad Prism 9 (Figure S4 and S5). […]
have any negative effects. The plate was then incubated at 4 °C for 30 min and wells were washed 5 times with PBS prior to imaging via fluorescence microscopy.
Fluorescence image acquisition, processing, and quantification
Fluorescence images were captured using an inverted fluorescence microscope (Leica DMi8) equipped with a 20x objective (HC PL APO CS2 20x/0.75 IMM UV), an FITC filter cube (EX: […]

Experiment [2] deals with T1, LasB (Pseudomonas aeruginosa, UniProt Q02RJ6).
T1 construct: P. aeruginosa PA14 culture supernatant; made in house; host or cells: native secreted enzyme purified from P. aeruginosa PA14 culture supernatant (not recombinant)
T1 sequence (Q02RJ6 198-498): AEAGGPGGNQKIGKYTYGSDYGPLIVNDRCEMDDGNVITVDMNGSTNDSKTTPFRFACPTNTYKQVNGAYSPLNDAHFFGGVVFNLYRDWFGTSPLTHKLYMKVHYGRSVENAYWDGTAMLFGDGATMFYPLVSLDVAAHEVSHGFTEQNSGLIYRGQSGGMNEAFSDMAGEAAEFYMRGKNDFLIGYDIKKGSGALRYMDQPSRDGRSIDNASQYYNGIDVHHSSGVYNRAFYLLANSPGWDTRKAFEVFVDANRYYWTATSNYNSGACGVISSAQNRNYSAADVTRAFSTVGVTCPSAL
The note with it: previously observed activities of reported inhibitors; cited from earlier work.

Experiment [3] concerns the target T1, LasB. In words: FRET-based in vitro LasB inhibition (proteolysis) assay. Type of experiment: biochemical, P. aeruginosa PA14. Here is the method:
The LasB activity of the thiol derivatives 11, 12, 17, 18, 24 and 25 was tested using a functional FRET-based in vitro proteolysis assay (Fig. 4A). […]
Expression and purification of LasB and LecA
LecA was expressed recombinantly using E. coli pET25-pail, whereas LasB was isolated from P. aeruginosa PA14 culture supernatant as described previously. 1,2 […]
In vitro inhibition assay for LasB
The in vitro inhibition assay was performed as described previously,2 using purified LasB (final concentration 0.3 nM), the fluorogenic substrate 2-aminobenzoyl-Ala-Gly-Leu-Ala-4-nitrobenzylamide (purchased from Peptides International (Louisville, KY, USA) or Vivitide, LLC (Gardner, MA, USA), final concentration 150 µM)) in assay buffer (50 mM Tris, pH 7.2, 2.5 mM CaCl2, 0.075% Pluronic F-127, 5% DMSO). Fluorescence was measured using a CLARIOstar plate reader (BMG Labtech, Ortenberg, Germany). IC50 values were calculated using GraphPad Prism 8 (GraphPad Software, San Diego, CA, USA) from at least three independent experiments performed in duplicate.

A further experiment deals with T2, LecA (Pseudomonas aeruginosa, UniProt Q05097).
T2 construct: made in house; host or cells: E. coli (plasmid pET25-pail)
T2 sequence (Q05097 whole entry): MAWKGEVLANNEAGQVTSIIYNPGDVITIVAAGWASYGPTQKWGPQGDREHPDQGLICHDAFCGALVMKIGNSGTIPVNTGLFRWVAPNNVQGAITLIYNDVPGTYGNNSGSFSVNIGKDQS
In words: Surface plasmon resonance direct LecA binding assay (immobilized LecA). Set-up: species or system P. aeruginosa. The settings on record: for time to reach equilibrium binding with immobilized LecA / k a / k d: SPR; for k a / k d: immobilized LecA. The text has this:
Therefore, we measured the LecA affinity of thiol derivatives 17, 18, 24 and 25 and disulfides 26a, 26b and 27 using surface plasmon resonance (SPR) with LecA covalently immobilized on a sensor chip via amide coupling (Fig. 5 and Table 1). […] Thiols 17, 18, 24 and 25 reached equilibrium binding within 60 s of interaction with immobilized LecA, followed by their dissociation with moderate off-rates. […] Due to the very small off-rates for 26a, 26b and 27, these values have been calculated based on the response at […] of the injected compound and monitoring their dissociation for 30 min (Fig. S2 ^†). The observed very tight binding to immobilized LecA required optimization of the protein surface regeneration procedure. Effective conditions were identified as one injection of 50 mm isopropyl β-D-thiogalactoside in the running buffer, followed by one injection of 20 mm EDTA disodium salt in water. The regenerated chip surface was controlled using an injection of 1 to ensure that the activity of LecA was maintained.
Surface plasmon resonance direct LecA binding assay
SPR experiments were performed on a Reichert 2-channel SPR SR7500DC (Reichert Technologies Life Sciences, Buffalo, NY, USA) at 25 °C. For LecA immobilization, the surface of a HC1000M sensor chip (XanTec bioanalytics GmbH, Düsseldorf, Germany) was preequilibrated with borate buffer (1 M NaCl, 0.1 M sodium borate pH 9.0), followed by activation of the polycarboxylate hydrogel with 0.2 M N-hydroxysuccinimide (NHS) and 0.4 M 1-ethyl-3-(3-dimethylaminopropyl)carbodiimide hydrochloride (EDC‧HCl) in MilliQ water in both channels for 240 s (flow rate 10 μL/min) until the binding response reached 1200 RU.
Then, LecA (100 μg/mL) in 10 mM sodium acetate pH 3.6 was injected on the activated chip surface of one channel (injection time 420 s, flow rate 10 μL/min) and 6000 RU of LecA were immobilized. Unreacted NHS esters in both channels were blocked with 1 M ethanolamine hydrochloride in MilliQ water pH 8.5 (injection time 360 s, flow rate 10 μL/min).
Test compound stock solutions were prepared in DMSO (20 mM stocks for monovalent LecA inhibitors, 20 µM stocks for divalent LecA inhibitors) and were subsequently diluted in 10 mM phosphate buffer (pH 7.4, 2.7 mM KCl, 137 mM NaCl, 100 μM CaCl2) to obtain solutions with […]
Monovalent inhibitors 17, 18, 24 and 25 were injected for 120 s (flow rate 50 μL/min) at concentrations ranging from 0.39–100 µM. Divalent inhibitors 26a, 26b and 27 were injected for 120 s (flow rate 50 μL/min) at concentrations 50–350 nM. The chip surface was regenerated after each inhibitor injection by one injection of 50 mM IPTG in running buffer (10 mM phosphate buffer, pH 7.4, 2.7 mM KCl, 137 mM NaCl, 100 μM CaCl2, 2% DMSO) followed by one injection 20 mM EDTA disodium salt in MilliQ water, and then followed by three injections of the running buffer (injection time 120 s, flow rate 50 μL/min). 100 µM pNP-Gal (1) in running buffer was injected before each analyte to monitor and ensure chip regeneration and […]
Affinity/equilibrium analysis was performed for 1 on the same chip. A stock solution of 1 (10 mM in PBS/CaCl2 buffer) was prepared, then diluted to the required concentrations in running buffer and injected at 1.56–400 µM (injection time 60 s, flow rate 50 μL/min) without regeneration steps. Data analysis was performed using TraceDrawer software (Ridgeview Instruments) using a 1:1 binding model to fit the experimental data. Spikes at the end of the injections were removed in TraceDrawer during the data analysis.
On the technique in general: Surface plasmon resonance follows binding to a sensor surface in real time, without labels.

For `Cc1ccc(NC(=O)C(S)CC(C)C)cc1` (centres unmarked) [Compound 2, reference compound], in the experiment on A549 cells, the “A549 cell viability under PAO1 culture supernatant” value is “neither 1 nor 2 nor their combination had any effect”. In addition, in experiment [1], the “inhibition of binding of LecA-FITC to A549 cells” value is on record as “failed to do so”.

For the molecule `O=C(Nc1ccccc1)C(S)Cc1ccccc1` (centres unmarked) [Compound 3], at LasB [2], the IC50 (usually the concentration that gives 50% inhibition) was 1200 nM.

`O=C(Nc1ccc(S[C@@H]2O[C@H](CO)[C@H](O)[C@H](O)[C@H]2O)cc1)[C@H](S)Cc1ccccc1` [Compound 17] returned an IC50 at LasB [3] of 730 nM. Besides, on LecA, the affinity, expressed as Kd, was 1300 ± 540 nM; the “time to reach equilibrium binding with immobilized LecA” value (“time to reach equilibrium binding” below) is not above 60 s; the k a is 0.71 ± 0.14 ×10^4 M^−1 s^−1; the k d is given as 86 ± 20 ×10^−4 s^−1.

In turn, `CC(C)C[C@@H](S)C(=O)Nc1ccc(S[C@@H]2O[C@H](CO)[C@H](O)[C@H](O)[C@H]2O)cc1` [Compound 18] registered an IC50 against LasB [3] of 510 nM. At LecA, the Kd (usually the constant that tells how readily two partners part at equilibrium) came out at 630 ± 290 nM, the “time to reach equilibrium binding” value is not above 60 s, the k a is given as 1.41 ± 0.47 ×10^4 M^−1 s^−1 and the k d was 82 ± 11 ×10^−4 s^−1.

In the case of `O=C(Nc1ccc(S[C@@H]2O[C@H](CO)[C@H](O)[C@H](O)[C@H]2O)cc1)[C@@H](S)Cc1ccccc1` [Compound 24], at LasB [3], the IC50 came out at 220 nM. Moreover, at LecA, the affinity, expressed as Kd, was 840 ± 160 nM; the “time to reach equilibrium binding” value is not above 60 s; the k a is given as 0.88 ± 0.23 ×10^4 M^−1 s^−1; the k d was 72 ± 5 ×10^−4 s^−1.

Turning to `CC(C)C[C@H](S)C(=O)Nc1ccc(S[C@@H]2O[C@H](CO)[C@H](O)[C@H](O)[C@H]2O)cc1` [Compound 25], half-maximal inhibition at LasB [3] (IC50) required 770 nM. Moreover, at LecA, binding was characterised by a dissociation constant (Kd) of 1000 ± 590 nM, the “time to reach equilibrium binding” value is not above 60 s, the k a was 0.90 ± 0.31 ×10^4 M^−1 s^−1 and the k d was 85 ± 2 ×10^−4 s^−1.
